{
  "source": "paper PMC10352165",
  "about": "“Miniaturized method for the quantification of persistent organic pollutants and their metabolites in HepG2 cells: assessment of their biotransformation” (Analytical and Bioanalytical Chemistry, 2023)",
  "key": {"HepG2 cells [1]": {"system": "HepG2 cells", "design": "method as in PMID 31426631", "details": "10% FBS in medium, evaporation losses considered, glass vials; cited from earlier work"}, "HepG2 cells [2]": {"system": "HepG2 cells", "details": "15 mg·L^−1"}, "HepG2 cells [3]": {"system": "HepG2 cells", "experiment": "MTT cell viability assay", "assay_type": "cell-based", "details": "human, 48 h", "method": "(§1) Cell viability was determined by MTT assay. First, 10,000 cells/well were cultured in 96-well plates for 24 h at 37 °C and 5% CO2. After that time, the culture medium was replaced with a culture medium containing different concentrations (0–70 mg·L^−1) of PHE and BDE-47 for 48 h of exposure under the same incubated conditions. After that, 20 μL MTT solution (5 mg·mL^−1 diluted in PBS) was added and incubated for the following 4 h. Viable cellular metabolic reduction of MTT produced formazan crystals, which were dissolved in 100 μL sterile DMSO and quantified with absorbance measurement at 595 nm in a Multiskan Sky High ([…] Thermo Fisher). The cell viability was estimated by using Eq. (1). 1 %Viability=Aexp-Ablank/Acontrol-Ablank∙100 where Acontrol, Aexp, and Ablank are the mean absorbance value (6 replicates) of the control group (cells without pollutant), experimental group, and blank group (only cell culture medium), respectively. Five independent assays were carried out with the same conditions. The results have been subsequently used for the design of the biotransformation experiment.\n(§2) Cell viability of each concentration was estimated by using Eq. (1) according to the absorbance values obtained in the MTT assay. The dose–response values were fitted by Origin Pro 2021 with a polynomial equation (shown in Fig. 3) from which the LC value was estimated. LC50 (50% viability) and LC30 (70% viability) were estimated by the polynomial fitting of the mean cell viability data obtained from three independent experiments. Cell viability in HepG2 decreased by 30% at 22 mg·L^−1 PHE and 38 mg·L^−1 BDE-47 and up to 50% at 38 mg·L^−1 PHE and 46 mg·L^−1 BDE-47. […] The calculated LC30 values have been subsequently used for the design of the biotransformation experiments."}, "MTT cell viability assay": {"experiment": "MTT cell viability assay", "assay_type": "cell-based", "details": "human", "method": "as §1, §2"}, "[4]": {"design": "method as in PMID 18318592", "details": "cited from earlier work"}, "[5]": {"details": "at 35 °C; cited from earlier work"}, "[6]": {"details": "cited from earlier work"}, "HepG2 cells [7]": {"system": "HepG2 cells", "experiment": "Plastic and glass plate exposure test (loss and cell uptake of compound)", "assay_type": "in vitro ADME", "method": "Exposure of HepG2 cells (3 replicates) was performed by initially seeding approximately 2·10^6 cells in glass P100 plates and being incubated for 24 h at 37 °C (5% CO2) with 10 mL of DMEM supplemented with 10% FBS. […] The nominal exposure concentration was estimated by the previous MTT viability study, in which, more than 70% of the cells were alive at the end of the test (lethal concentration 30, LC30) to ensure good metabolizing capacity. Part of the contaminated medium was stored to determine the concentration at time 0 of exposure (“t = 0 h”). In addition, to consider possible analyte loss, a plate of control cells without pollutant (“blank”) and a plate with contaminated medium without cells (“no cells”) were incubated under the same conditions. […] Since the determination of PHE is carried out by LC-FL and its metabolites by GC–MS, the cell pellet was divided in half for each analysis. For this purpose, the adherent cells were lifted in suspension by trypsinization, and the total volume of the homogenous cell suspension was divided in half. Then, the resulting cell pellet from each fraction was collected by centrifuging at 1500 rpm for 5 min and removing the medium. However, for the determination of BDE-47 and its metabolites, the complete pellet obtained is analyzed because a simultaneous extraction is performed for both analyses. The obtained pellet was dried under a gentle stream of nitrogen, weighed on a precision analytical balance (± 0.00001 g), and stored at − 4 °C until analysis. Three independent assays were carried out with the same conditions, each with 3 replicates (plates) of the same concentration.\nA major problem in in vitro cell assays is the loss of compound during the exposure process to estimate the effective concentration available to the cell and to correctly assess the toxicity and metabolization kinetics of POPs, as most of them are hydrophobic and semi-volatile. Firstly, when concentration was determined in the exposure and no cells medium samples at the end of the test (48 h) using plastic Petri dishes, a loss of 89% and 84% compared to the t = 0 h sample was found in the cells and no cells sample respectively (Table 1). This loss, similar to that found in previous studies, is mainly explained by absorption into polystyrene, the main component of in vitro culture plates or evaporation processes because these compounds have a Henry law constant (KH) between 1 and 10 Pa·m^3·mol^−1 [11] (7.90 Pa·m^3·mol^−1 for PHE at 35 °C [13] and 3.78 Pa·m^3·mol^−1 for BDE-47 at 40 °C [40]). The remaining concentration in the medium that had not been lost by evaporation or absorbed into the cells was retained in the protein serum. […] A fraction dissolved in the medium accessible to the cells of 3.5% for anthracene (log Kow 4.5) was obtained introducing the conditions of this work into the chemical partitioning model developed by Fischer et al.. […] Therefore, it should be considered to avoid the use of plastic in tests that requires P100 plates with a very high surface area/volume ratio of the medium when studying neutral chemicals with a log Kow > 3, as is the case of PHE (log Kow 4.46 [39]) and BDE-47 (log Kow 6.81 [26]).\nUsing glass plates, a loss of 47% and 26% for cells and no cells samples, respectively, was found at the end of the assay (48 h) (Table 1), and the concentration absorbed by the cells increased from 4 ± 1 to 18 ± 3%. For BDE-47, a loss of only 14% because of volatilization and an absorbed concentration of 24 ± 2% resulted using a glass plate, as BDE-47 is less volatile and more hydrophobic than PHE, favoring cell uptake. Birch et al. calculated a cell-free fraction of 13% for PHE in HepG2 cells with 10% of FBS in the medium considering the evaporation losses using glass vials. […]"}, "HepG2": {"system": "HepG2", "details": "HepG2 at 48 h of PHE exposure, cited from earlier work"}},
  "data": [
    {"smiles": "c1ccc2c(c1)ccc1ccccc12", "note": "[PHE, phenanthrene]", "values": [
      {"measurement": "cell-free fraction", "setting": "HepG2 cells [1]", "value": 13, "unit": "%"},
      {"measurement": "Concentration in medium, t = 0 h", "setting": "HepG2 cells [2]; 0 h", "value": "12000 ± 1000", "unit": "ng/mL"},
      {"measurement": "Concentration in medium, no cells", "setting": "HepG2 cells [2]; 48 h", "value": "8000 ± 2000", "unit": "ng/mL"},
      {"measurement": "Concentration in cells, samples (n = 3)", "setting": "HepG2 cells [2]; human, 48 h", "value": "521 ± 144", "unit": "µg/g"},
      {"measurement": "Concentration in medium, samples", "setting": "HepG2 cells [2]; human, 48 h", "value": "5700 ± 700", "unit": "ng/mL"},
      {"measurement": "LC30 (70% viability; cell viability decreased by 30%)", "setting": "HepG2 cells [3]", "value": 22, "unit": "µg/mL"},
      {"measurement": "CC50 at 48 h", "setting": "MTT cell viability assay", "value": 38, "unit": "µg/mL"},
      {"measurement": "absorption when glass is used", "setting": "[4]; glass", "value": 2, "unit": "%"},
      {"measurement": "initial concentration absorbed on polystyrene", "setting": "[4]; polystyrene", "value": 94, "unit": "%"},
      {"measurement": "Henry law constant (KH)", "setting": "[5]", "value": 7.90, "unit": "Pa·m^3·mol^−1"},
      {"measurement": "log Kow", "setting": "[6]", "value": 4.46},
      {"measurement": "Conc. PHE Glass plate exposure", "setting": "HepG2 cells [7]; 0 h", "value": 4370, "unit": "ng/mL"},
      {"measurement": "Conc. PHE Plastic plate exposure", "setting": "HepG2 cells [7]; 0 h", "value": 5570, "unit": "ng/mL"},
      {"measurement": "Conc. PHE Glass plate exposure", "setting": "HepG2 cells [7]; 24 h", "value": 3690, "unit": "ng/mL"},
      {"measurement": "Conc. PHE Glass plate exposure", "setting": "HepG2 cells [7]; 48 h", "value": 3160, "unit": "ng/mL"},
      {"measurement": "Conc. PHE Plastic plate exposure", "setting": "HepG2 cells [7]; 48 h", "value": 880, "unit": "ng/mL"},
      {"measurement": "loss at the end of the assay", "setting": "HepG2 cells [7]; 48 h", "value": 26, "unit": "%"},
      {"measurement": "loss compared to the t = 0 h sample", "setting": "HepG2 cells [7]; 48 h", "value": 84, "unit": "%"},
      {"measurement": "concentration absorbed by the cells", "setting": "HepG2 cells [7]; human, 48 h", "value": "18 ± 3", "unit": "%"},
      {"measurement": "loss at the end of the assay", "setting": "HepG2 cells [7]; human, 48 h", "value": 47, "unit": "%"},
      {"measurement": "loss compared to the t = 0 h sample", "setting": "HepG2 cells [7]; human, 48 h", "value": 89, "unit": "%"},
      {"measurement": "taken up by the cells", "setting": "HepG2 cells [7]; human, 48 h", "value": "4 ± 1", "unit": "%"},
      {"measurement": "LC50", "setting": "HepG2", "value": 20.3, "unit": "µg/mL"},
      {"measurement": "CC50", "setting": "HepG2; read-out: LC50 (the source's name)", "value": 114, "unit": "µM"}
    ]}
  ]
}
